Biological target: Src (Homo sapiens, UniProt P12931)
Experiment: cell-free ADP-Glo Src kinase assay (Promega)
Assay type: biochemical

Sequence of Src (P12931 2-536): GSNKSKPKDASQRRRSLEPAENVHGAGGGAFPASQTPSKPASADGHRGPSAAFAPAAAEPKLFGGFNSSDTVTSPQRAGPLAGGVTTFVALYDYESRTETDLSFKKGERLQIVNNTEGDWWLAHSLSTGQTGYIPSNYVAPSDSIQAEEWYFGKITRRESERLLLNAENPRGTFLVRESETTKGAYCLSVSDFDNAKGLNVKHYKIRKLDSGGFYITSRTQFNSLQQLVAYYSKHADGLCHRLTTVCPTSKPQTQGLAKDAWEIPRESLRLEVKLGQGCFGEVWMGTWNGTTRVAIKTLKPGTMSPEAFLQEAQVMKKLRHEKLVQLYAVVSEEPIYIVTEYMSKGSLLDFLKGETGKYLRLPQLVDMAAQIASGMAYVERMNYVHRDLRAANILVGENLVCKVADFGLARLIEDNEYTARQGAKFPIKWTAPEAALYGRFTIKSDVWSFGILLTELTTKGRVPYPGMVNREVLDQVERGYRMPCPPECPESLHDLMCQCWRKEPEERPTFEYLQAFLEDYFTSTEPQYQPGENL

## O=C(/C=C/c1ccc(O)cc1O)c1ccc(O)cc1O [THC, 2,4, 2′, 4′-tetrahydroxychalcone]
  IC50: 1440 nM
